Source: US20130196989A1, “COMPOSITIONS AND METHODS FOR INDUCING CELL DEDIFFERENTIATION” (The Scripps Research Institute, priority 2003, published 2013)

Assays:
C2C12 myoblast cells [1] = conditions: 5 μM reversine, day four of compound treatment
C2C12 myoblast cells [2] = conditions: 5 μM compound for four days, then seven days in osteogenic inducing medium; BBTP substrate
Method: C2C12 cells (ATCC CRL-1772) are cultured in DMEM (Gibco) supplemented with 10% fetal bovine serum (HyClone) at 37° C. in 5% CO2.
For the small molecule screen, proliferating C2C12 cells are plated into black 384-well tissue culture plates (Greiner) at a density of 1,000 cells/well in DMEM with 10% FBS. […] After the cells are treated with test compounds for four days, the test compound is removed and the cell culture medium is changed to osteogenic differentiation medium (ODM) containing 50 μg/ml ascorbic acid 2-phosphate, 0.1 μM dexamethasone and 10 mM β-glycerophosphate. Cell culture medium is typically changed every two days. After seven additional days of culture in ODM, the ODM is removed and cells are lysed by incubation in 10 μL passive lysis buffer (Promega) for 10 min, followed by addition of 10 μL alkaline phosphatase substrate solution (AttoPhos, Promega). After a 15 minute room temperature incubation, fluorescence intensity is read on an Acquest (Molecular Devices) as directed by the manufacturer. […]

C2C12 myoblast cells [3] = tested on: C2C12 myoblast cells
Method: Mammalian cells (e.g., C2C12 myoblast cells) were treated with a suitable amount of a test compound (e.g., 5 μM reversine) in DMEM supplemented with 10% FBS for four days. The compound was then removed and medium was changed to adipogenic differentiation medium (ADM) containing 0.5 mM 3-isobutyl-1-methylxanthine, 2.5 μg/ml insulin, and 0.5 μM dexamethasone. Typically, the ADM is replaced every two days. After seven days following induction of adipogenesis, the cells are washed with PBS (200 μL, 3 times) and fixed with 10% formalin solution (Sigma) for 10 min. The fixed cells are then washed with PBS (200 μL, 3 times) and stained with the 0.7% Oil Red O (Sigma) as directed by the manufacturer. Images are taken on a Nikon Eclipse TE2000 microscope at 200 fold magnification.
(§1) After four days of treatment with reversine, the compound was removed and cells were then grown in osteogenic differentiation medium (ODM) or adipogenic differentiation medium (ADM).

C2C12 myoblast cells [4] = tested on: C2C12 myoblast cells; remark: listed apart in the source
Method: Mammalian cells (e.g., C2C12 myoblast cells) are treated with a suitable amount of a test compound (e.g., 5 μM reversine) in DMEM supplemented with 10% FBS for four days. The compound is then removed and medium is changed to ODM every two days. After seven days following induction of osteogenesis, the cells are washed with PBS (200 μL, 3 times) and fixed with 10% formalin solution (Sigma) for 20 min. The fixed cells are then washed with PBS (200 μL, 3 times) and stained with the Alkaline Phosphatase Staining Kit 86R (Sigma) as directed by the manufacturer. Images are taken on a Nikon Eclipse TE2000 microscope at 200 fold magnification.
as §1

C2C12 cells = conditions: single-cell colonies, 6 days of treatment, portions cultured in ODM and ADM
Method: Clonal analysis is used to verify that reversine can induce dedifferentiation at the single cell level. C2C12 cells were cultured from a single cell and treated with reversine. After 6 days of treatment, each colony was divided into two portions. One portion was cultured in ODM and another portion was cultured in ADM. The cells were then analyzed using the staining assays described in Example 1.

C2C12 myoblasts cells = assay: Cell death at effective concentration
Method: as §1

## c1nc2nc(Nc3ccc(N4CCOCC4)cc3)nc(NC3CCCCC3)c2[nH]1 [Compound A, 2-(4-Morpholinoanilino)-6-cyclohexylamino-purine]
C2C12 myoblast cells [1]
  myogenic specific markers such as MyoD and myosin: began to disappear
  myotube formation: completely inhibited
C2C12 myoblast cells [2]
  level of ALP activity relative to the DMSO control treatment: 7 fold
C2C12 myoblast cells [3]; four days of treatment, compound removed, ADM condition, end of day seven
  cells with fat cell morphology, stained positive with Oil Red O: 40%
C2C12 myoblast cells [3]; in the absence of ADM
  adipogenesis activity of compound alone: no adipogenesis activity
C2C12 myoblast cells [4]; four days of treatment, compound removed, ODM conditions, end of day seven
  cells stained positive for ALP: 35%
C2C12 myoblast cells [4]; in the absence of ODM
  osteogenesis activity of compound alone: no osteogenesis activity
C2C12 cells
  colonies determined to be multipotent: 56 of 97
C2C12 myoblasts cells
  cell death: no significant cell death
C2C12 myoblasts cells; C2C12 dedifferentiation
  effective concentration: 0.5 to 5 µM
